# How the values were obtained:
# Italian ryegrass [1] = assay: Test Example 4: herbicidal effect by soil treatment (Table 19, symbol K); type: in vivo, Italian ryegrass (Lolium multiflorum); conditions: amount of applied herbicide 320 g/ha
# Summary of the method: (§1)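 Three weeks of greenhouse growth at 25° C. to 30° C. followed a uniform surface spray of water-diluted emulsion at a predetermined herbicide amount. Seeds had been sown beforehand under about 1.5 cm of sterilized diluvial soil. Grading followed criteria set out in an earlier test.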
# Chinese sprangletop = assay: Test Example 3: herbicidal effect by foliage application, Wagner pot (Table 18, symbol D); type: in vivo, chinese sprangletop (Leptochloa chinensis); conditions: amount of applied herbicide 320 g/ha
# Summary of the method: (§2)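 Plants were sown in alluvial soil held under 0.1–0.5 cm standing water and grown 14 days in a greenhouse at 25–30 °C. An emulsifiable formulation, water-diluted to the set dose, was then sprayed onto the foliage, and effects were scored three weeks later using previously defined criteria.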
# barnyard grass [2] = assay: Test Example 4: herbicidal effect by soil treatment (Table 19, symbol H); type: in vivo, barnyard grass (Echinochloa crus-galli); conditions: amount of applied herbicide 320 g/ha
# Summary of the method: as §1
# Japanese bulrush [3] = assay: Test Example 1: herbicidal activity, application before weed generation under submerged conditions (Table 16, symbol B); type: in vivo, Japanese bulrush (Schoenoplectus juncoides); conditions: 320 g/ha applied herbicide
# Summary of the method: (§3)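 Submerged Wagner pots (alluvial soil, 4 cm water) sown with weed seeds and planted with 2.5-leaf rice seedlings; emulsifiable concentrate diluted in water applied to water surface on sowing day. Held in greenhouse at 25-30 °C; injury scored 0-5 by herbicidal rate after three weeks.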
# blackgrass [4] = assay: Test Example 4: herbicidal effect by soil treatment (Table 19, symbol J); type: in vivo, blackgrass (Alopecurus myosuroides); conditions: amount of applied herbicide 320 g/ha
# Summary of the method: as §1
# southern crabgrass [5] = assay: Test Example 4: herbicidal effect by soil treatment (Table 19, symbol F); type: in vivo, southern crabgrass (Digitaria ciliaris); conditions: amount of applied herbicide 320 g/ha
# Summary of the method: as §1
# late watergrass [6] = assay: Test Example 1: herbicidal activity, application before weed generation under submerged conditions (Table 16, symbol A); type: in vivo, late watergrass (Echinochloa oryzicola); conditions: 320 g/ha applied herbicide
# Summary of the method: as §3
# lambsquarters [7] = assay: Test Example 4: herbicidal effect by soil treatment (Table 19, symbol O); type: in vivo, lambsquarters (Chenopodium album); conditions: amount of applied herbicide 320 g/ha
# Summary of the method: as §1
# late watergrass [8] = assay: Test Example 2: herbicidal activity, application during weed generation under submerged conditions (Table 17, symbol A); type: in vivo, late watergrass (Echinochloa oryzicola); conditions: AAH 320 g/ha; application during weed generation, submerged conditions
# Summary of the method: (§4)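 Wagner pot, alluvial soil, 4 cm flood; mixed sowing of all species; greenhouse 25° C.–30° C. Emulsifiable formulation, water-diluted to predetermined dose, applied to paddy water at 1–2 leaf stage. Effect rated at 3 wk using the earlier test's scoring criteria.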
# green foxtail [9] = assay: Test Example 4: herbicidal effect by soil treatment (Table 19, symbol G); type: in vivo, green foxtail (Setaria viridis); conditions: amount of applied herbicide 320 g/ha
# Summary of the method: as §1
# wild oat [10] = assay: Test Example 4: herbicidal effect by soil treatment (Table 19, symbol I); type: in vivo, wild oat (Avena fatua); conditions: amount of applied herbicide 320 g/ha
# Summary of the method: as §1
# barnyard grass [11] = assay: Test Example 3: herbicidal effect by foliage application, Wagner pot (Table 18, symbol H); type: in vivo, barnyard grass (Echinochloa crus-galli); conditions: amount of applied herbicide 320 g/ha
# Summary of the method: as §2
# oval-leafed pondweed [12] = assay: Test Example 1: herbicidal activity, application before weed generation under submerged conditions (Table 16, symbol C); type: in vivo, oval-leafed pondweed (Monochoria vaginalis); conditions: 320 g/ha applied herbicide
# Summary of the method: as §3
# windgrass [13] = assay: Test Example 4: herbicidal effect by soil treatment (Table 19, symbol L); type: in vivo, windgrass (Apera spica-venti); conditions: amount of applied herbicide 320 g/ha
# Summary of the method: as §1
# velvetleaf [14] = assay: Test Example 4: herbicidal effect by soil treatment (Table 19, symbol M); type: in vivo, velvetleaf (Abutilon theophrasti); conditions: amount of applied herbicide 320 g/ha
# Summary of the method: as §1
# chickweed = assay: Test Example 4: herbicidal effect by soil treatment (Table 19, symbol P); type: in vivo, common chickweed (Stellaria media); conditions: amount of applied herbicide 320 g/ha
# Summary of the method: as §1
# redroot pigweed = assay: Test Example 4: herbicidal effect by soil treatment (Table 19, symbol N); type: in vivo, redroot pigweed (Amaranthus retroflexus); conditions: amount of applied herbicide 320 g/ha
# Summary of the method: as §1
# persian speedwell [15] = assay: Test Example 4: herbicidal effect by soil treatment (Table 19, symbol R); type: in vivo, Persian speedwell (Veronica persica); conditions: amount of applied herbicide 320 g/ha
# Summary of the method: as §1
# oval-leafed pondweed [16] = assay: Test Example 2: herbicidal activity, application during weed generation under submerged conditions (Table 17, symbol C); type: in vivo, oval-leafed pondweed (Monochoria vaginalis); conditions: AAH 320 g/ha; application during weed generation, submerged conditions
# Summary of the method: as §4
# Japanese bulrush [17] = assay: Test Example 2: herbicidal activity, application during weed generation under submerged conditions (Table 17, symbol B); type: in vivo, Japanese bulrush (Schoenoplectus juncoides); conditions: AAH 320 g/ha; application during weed generation, submerged conditions
# Summary of the method: as §4
# rice flat sedge = assay: Test Example 3: herbicidal effect by foliage application, Wagner pot (Table 18, symbol E); type: in vivo, rice flat sedge (Cyperus iria); conditions: amount of applied herbicide 320 g/ha
# Summary of the method: as §2
# windgrass [18] = assay: Test Example 5: herbicidal effect by foliage application, plastic box (Table 20, symbol L); type: in vivo, windgrass (Apera spica-venti); conditions: foliage application, 320 g/ha, three weeks after application
# Summary of the method: (§5)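 Plants sown in sterilized diluvial soil and grown 14 days in a greenhouse at 25° C to 30° C, then sprayed on the foliage with the compound's emulsion diluted in water to a predetermined herbicide amount. Injury to weeds and crops scored three weeks after application on a visual rating scale.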
# southern crabgrass [19] = assay: Test Example 5: herbicidal effect by foliage application, plastic box (Table 20, symbol F); type: in vivo, southern crabgrass (Digitaria ciliaris); conditions: foliage application, 320 g/ha, three weeks after application
# Summary of the method: as §5
# blackgrass [20] = assay: Test Example 5: herbicidal effect by foliage application, plastic box (Table 20, symbol J); type: in vivo, blackgrass (Alopecurus myosuroides); conditions: foliage application, 320 g/ha, three weeks after application
# Summary of the method: as §5
# false cleavers = assay: Test Example 5: herbicidal effect by foliage application, plastic box (Table 20, symbol Q); type: in vivo, false cleavers (Galium spurium); conditions: foliage application, 320 g/ha, three weeks after application
# From the text: [Test Example 5] Herbicidal Effect Test by Foliage Application
# Sterilized diluvial soil was placed in a plastic box having a length of 21 cm, a width of 13 cm, and a depth of 7 cm. The seeds of each of southern crabgrass, green foxtail, barnyard grass, wild oat, blackgrass, Italian ryegrass, windgrass, velvetleaf, redroot pigweed, lambsquarters, chickweed, false cleavers, persian speedwell, corn, soybean, rice, wheat, beet, and rapeseed were sowed in a spot-like manner and covered with the soil having a thickness of about 1.5 cm. Thereafter, the plants were grown in a greenhouse at 25° C. to 30° C. After 14-day growth of the plants, the emulsion agent of the compound of the present invention prepared according to Formulation Example 2 was diluted with water so as to achieve a predetermined herbicide amount, and the diluted emulsion agent was uniformly applied to a foliage part with a small-sized spray. Three weeks after the herbicide application, the effect of the herbicide on each plant was evaluated according to the criteria of Test Example 1.
# barnyard grass [21] = assay: Test Example 5: herbicidal effect by foliage application, plastic box (Table 20, symbol H); type: in vivo, barnyard grass (Echinochloa crus-galli); conditions: foliage application, 320 g/ha, three weeks after application
# Summary of the method: as §5
# Italian ryegrass [22] = assay: Test Example 5: herbicidal effect by foliage application, plastic box (Table 20, symbol K); type: in vivo, Italian ryegrass (Lolium multiflorum); conditions: foliage application, 320 g/ha, three weeks after application
# Summary of the method: as §5
# lambsquarters [23] = assay: Test Example 5: herbicidal effect by foliage application, plastic box (Table 20, symbol O); type: in vivo, lambsquarters (Chenopodium album); conditions: foliage application, 320 g/ha, three weeks after application
# Summary of the method: as §5
# wild oat [24] = assay: Test Example 5: herbicidal effect by foliage application, plastic box (Table 20, symbol I); type: in vivo, wild oat (Avena fatua); conditions: foliage application, 320 g/ha, three weeks after application
# Summary of the method: as §5
# velvetleaf [25] = assay: Test Example 5: herbicidal effect by foliage application, plastic box (Table 20, symbol M); type: in vivo, velvetleaf (Abutilon theophrasti); conditions: foliage application, 320 g/ha, three weeks after application
# Summary of the method: as §5
# persian speedwell [26] = assay: Test Example 5: herbicidal effect by foliage application, plastic box (Table 20, symbol R); type: in vivo, Persian speedwell (Veronica persica); conditions: foliage application, 320 g/ha, three weeks after application
# Summary of the method: as §5
# green foxtail [27] = assay: Test Example 5: herbicidal effect by foliage application, plastic box (Table 20, symbol G); type: in vivo, green foxtail (Setaria viridis); conditions: foliage application, 320 g/ha, three weeks after application
# Summary of the method: as §5
smiles,measurement,setting,value
CCCC(=O)Oc1c(C)nn(C)c(=O)c1-c1c(-c2ccc(F)c(Cl)c2)sc2ccc(F)cc12 [2-353],"herbicidal effect, K: Italian ryegrass",Italian ryegrass [1],4 (Herbicidal rate of 70% or more and less than 90%)
same,herbicidal effect on D: Chinese sprangletop,Chinese sprangletop,5 (Herbicidal rate of 90% or more (almost completely withered))
same,"herbicidal effect, H: barnyard grass",barnyard grass [2],1 (Herbicidal rate of 5% or more and less than 20%)
same,Herbicidal effect on B: Japanese bulrush (grade 0-5),Japanese bulrush [3],0 (Herbicidal rate of 5% or less (almost no effect))
same,"herbicidal effect, J: blackgrass",blackgrass [4],0 (Herbicidal rate of 5% or less (almost no effect))
same,"herbicidal effect, F: southern crabgrass",southern crabgrass [5],3 (Herbicidal rate of 40% or more and less than 70%)
same,Herbicidal effect on A: late watergrass (grade 0-5),late watergrass [6],2 (Herbicidal rate of 20% or more and less than 40%)
same,"herbicidal effect, O: lambsquarters",lambsquarters [7],4 (Herbicidal rate of 70% or more and less than 90%)
same,"herbicidal effect rating, A: late watergrass",late watergrass [8],4 (Herbicidal rate of 70% or more and less than 90%)
same,"herbicidal effect, G: green foxtail",green foxtail [9],1 (Herbicidal rate of 5% or more and less than 20%)
same,"herbicidal effect, I: wild oat",wild oat [10],0 (Herbicidal rate of 5% or less (almost no effect))
same,herbicidal effect on H: barnyard grass,barnyard grass [11],5 (Herbicidal rate of 90% or more (almost completely withered))
same,Herbicidal effect on C: oval-leafed pondweed (grade 0-5),oval-leafed pondweed [12],0 (Herbicidal rate of 5% or less (almost no effect))
same,"herbicidal effect, L: windgrass",windgrass [13],3 (Herbicidal rate of 40% or more and less than 70%)
same,"herbicidal effect, M: velvetleaf",velvetleaf [14],2 (Herbicidal rate of 20% or more and less than 40%)
same,"herbicidal effect, P: chickweed",chickweed,3 (Herbicidal rate of 40% or more and less than 70%)
same,"herbicidal effect, N: redroot pigweed",redroot pigweed,4 (Herbicidal rate of 70% or more and less than 90%)
same,"herbicidal effect, R: persian speedwell",persian speedwell [15],3 (Herbicidal rate of 40% or more and less than 70%)
same,"herbicidal effect rating, C: oval-leafed pondweed",oval-leafed pondweed [16],3 (Herbicidal rate of 40% or more and less than 70%)
same,"herbicidal effect rating, B: Japanese bulrush",Japanese bulrush [17],3 (Herbicidal rate of 40% or more and less than 70%)
same,herbicidal effect on E: rice flat sedge,rice flat sedge,5 (Herbicidal rate of 90% or more (almost completely withered))
COc1cc2sc(-c3ccc(F)cc3)c(-c3c(O)c(C)nn(C)c3=O)c2cc1OC [5-057],herbicidal effect on windgrass (L),windgrass [18],0 (Herbicidal rate of 5% or less (almost no effect))
same,herbicidal effect on southern crabgrass (F),southern crabgrass [19],0 (Herbicidal rate of 5% or less (almost no effect))
same,herbicidal effect on blackgrass (J),blackgrass [20],0 (Herbicidal rate of 5% or less (almost no effect))
same,herbicidal effect on false cleavers (Q),false cleavers,0 (Herbicidal rate of 5% or less (almost no effect))
same,herbicidal effect on barnyard grass (H),barnyard grass [21],0 (Herbicidal rate of 5% or less (almost no effect))
same,herbicidal effect on Italian ryegrass (K),Italian ryegrass [22],0 (Herbicidal rate of 5% or less (almost no effect))
same,herbicidal effect on lambsquarters (O),lambsquarters [23],0 (Herbicidal rate of 5% or less (almost no effect))
same,herbicidal effect on wild oat (I),wild oat [24],0 (Herbicidal rate of 5% or less (almost no effect))
same,herbicidal effect on velvetleaf (M),velvetleaf [25],0 (Herbicidal rate of 5% or less (almost no effect))
same,herbicidal effect on persian speedwell (R),persian speedwell [26],4 (Herbicidal rate of 70% or more and less than 90%)
same,herbicidal effect on green foxtail (G),green foxtail [27],0 (Herbicidal rate of 5% or less (almost no effect))

# Source: patent US20230085307A1, “PYRIDAZINONE COMPOUND AND HERBICIDE” (NISSAN CHEMICAL CORPORATION, priority 2019, published 2023)
